Source: PubChem BioAssay (NCI)
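Test compounds were applied to cells in 96-well plates for 48 hours at 5 doses. TGI marks complete inhibition of growth.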

Experiments:
Experiment in all cases: growth of human tumour cells (NCI), 48 h
[1] = tested on: ACHN renal
[2] = tested on: HCT-15 colon
[3] = tested on: HOP-92 NSCLC
[4] = tested on: HT29 colon
[5] = tested on: KM12 colon
[6] = tested on: MCF7 breast
[7] = tested on: MDA-MB-435
[8] = tested on: MOLT-4 leukemia
[9] = tested on: NCI-H226 lung
[10] = tested on: NCI-H23 lung
[11] = tested on: NCI-H460 lung
[12] = tested on: NCI-H522 lung
[13] = tested on: OVCAR-3 ovarian
[14] = tested on: PC-3 prostate
[15] = tested on: RPMI-8226 leukemia
[16] = tested on: SF-295 CNS
[17] = tested on: SK-MEL-2 melanoma
[18] = tested on: UACC-62 melanoma
[19] = tested on: UO-31 renal
[20] = tested on: RXF 393 renal

With `C=C1CCCC(C)(C)[C@H]1C/C=C1\CCOC1=O` the TGI [1] was 29.4 µM, the TGI [2] was > 100 µM and the TGI [3] was 26.6 µM. It also gave a TGI [4] of 28 µM, a TGI [5] of 31.8 µM and a TGI [6] of 25.4 µM. It also gave a TGI [7] of 22 µM, a TGI [8] of 38.9 µM and a TGI [9] of 24.9 µM. It also gave a TGI [10] of 39 µM, a TGI [11] of 24.4 µM and a TGI [12] of 40.4 µM. The TGI [13] was 34.8 µM, the TGI [14] was 31.5 µM and the TGI [15] was > 100 µM. The TGI [16] was 30.8 µM, the TGI [17] was > 100 µM and the TGI [18] was > 100 µM. The TGI [19] was 29.6 µM.

For `Cc1ccc(/C=C/C(=N/NC(=O)N/N=C(/C=C/c2ccc(C)cc2)C(C)C)C(C)C)cc1`, the TGI [1] was > 10 µM, the TGI [2] was > 10 µM and the TGI [3] was > 10 µM. The TGI [4] was > 10 µM, the TGI [5] was > 10 µM and the TGI [6] was > 10 µM. The TGI [7] was > 10 µM, the TGI [8] was > 10 µM and the TGI [9] was > 10 µM. The TGI [10] was > 10 µM, the TGI [11] was > 10 µM and the TGI [12] was > 10 µM. The TGI [13] was > 10 µM, the TGI [14] was > 10 µM and the TGI [15] was > 10 µM. The TGI [20] was > 10 µM, the TGI [16] was > 10 µM and the TGI [17] was > 10 µM. The TGI [19] was > 10 µM.

With `C=C(Cl)/C(=C\Cl)CCC(Cl)C(C)C` (centres undefined) the TGI [1] was > 100 µM, the TGI [3] was > 100 µM and the TGI [4] was > 100 µM. The TGI [5] was > 100 µM, the TGI [6] was > 100 µM and the TGI [7] was > 100 µM. For the same compound, the TGI [8] was > 100 µM, the TGI [9] was > 100 µM and the TGI [10] was > 100 µM. The TGI [11] was > 100 µM, the TGI [12] was > 100 µM and the TGI [13] was > 100 µM. The TGI [14] was > 100 µM, the TGI [15] was > 100 µM and the TGI [20] was > 100 µM. The TGI [16] was > 100 µM, the TGI [17] was > 100 µM and the TGI [18] was > 100 µM. For the same compound, the TGI [19] was > 100 µM.

`O=C1CCC(=O)N1CNc1ccc2c(c1)S(=O)(=O)c1ccccc1O2` was tested, and the TGI [1] was > 100 µM, the TGI [2] was > 100 µM and the TGI [3] was > 100 µM. For the same compound, the TGI [4] was > 100 µM, the TGI [5] was > 100 µM and the TGI [6] was > 100 µM. The TGI [7] was > 100 µM, the TGI [8] was > 100 µM and the TGI [9] was > 100 µM. The TGI [10] was > 100 µM, the TGI [12] was > 100 µM and the TGI [13] was > 100 µM. For the same compound, the TGI [14] was > 100 µM, the TGI [15] was > 100 µM and the TGI [20] was > 100 µM. The TGI [16] was > 100 µM, the TGI [17] was > 100 µM and the TGI [18] was > 100 µM. For the same compound, the TGI [19] was > 100 µM.

`CCN(CC)Cc1ccccc1CC(=O)N1c2ccccc2C(=O)Nc2cccnc21` was tested, and the TGI [1] was > 100 µM, the TGI [2] was > 100 µM and the TGI [3] was > 100 µM. For the same compound, the TGI [4] was > 100 µM, the TGI [5] was > 100 µM and the TGI [6] was > 100 µM. For the same compound, the TGI [7] was > 100 µM, the TGI [8] was > 100 µM and the TGI [9] was > 100 µM. The TGI [10] was > 100 µM, the TGI [11] was > 100 µM and the TGI [12] was > 100 µM. For the same compound, the TGI [13] was > 100 µM, the TGI [14] was > 100 µM and the TGI [15] was > 100 µM. The TGI [20] was > 100 µM, the TGI [16] was > 100 µM and the TGI [17] was > 100 µM. The TGI [18] was > 100 µM.

With `C[C@@H](CC(=O)O)OC1OC(COC(=O)C(C)(C)C)C(OC(=O)C(C)(C)C)C(OC(=O)C(C)(C)C)C1OC(=O)C(C)(C)C` (some centres undefined) the TGI [1] was 64.4 µM, the TGI [2] was 84.9 µM and the TGI [3] was > 100 µM. For the same compound, the TGI [4] was > 100 µM, the TGI [5] was > 100 µM and the TGI [6] was > 100 µM. The TGI [7] was > 100 µM, the TGI [8] was 81.3 µM and the TGI [9] was > 100 µM. The TGI [10] was 93.5 µM, the TGI [11] was 75.7 µM and the TGI [12] was > 100 µM. The TGI [13] was > 100 µM, the TGI [14] was > 100 µM and the TGI [15] was 71.8 µM. The TGI [20] was > 100 µM, the TGI [16] was > 100 µM and the TGI [17] was > 100 µM. For the same compound, the TGI [18] was > 100 µM.
